Test results: patent US7271288B2, “Aromatic compounds” (Kyushu University, National University Corporation, priority 2002, dated 2007)

What was measured:
[1] = Solubility observed when preparing samples for fluorescence measurement; assay type: physicochemical
Protocol: Gels were prepared from compounds 1 and 2 with cyclohexane (hereinafter referred to as cyclohexane gel(s)). The concentration of compound 1 or 2 in cyclohexane was adjusted to 5 mM. Chloroform solutions of compounds 1, 2 and 3 (5×10^−5 M) were also prepared. The fluorescence spectroscopic measurement was carried out for each gel. The excitation wavelength λex for the measurements was 340 nm.
As both compounds 1 and 2 were soluble in hot cyclohexane, solid samples were prepared by dissolving the compounds in cyclohexane followed by removing the solvent with a rotary evaporator at room temperature. Each of the solid samples thus prepared was then subjected to fluorescence spectroscopic measurement. As shown in FIG. 8 and FIG. 9, the difference in the spectra reflecting the difference in the gel was also observed in the solid state. Therefore, it was confirmed that the assembly structure of the gel is maintained even in the solid state.

Gelation test = assay type: physicochemical; design: key to gelation ability: I = insoluble; S = soluble; P = precipitate; G = gel; pG = partial gel; conditions: for gelation ability: 10 mM, 30 minutes at room temperature
Protocol: To a septum-capped test tube (i.d. 5 mm) were added compounds 1 or 2 and a solvent (100 μl) so that the concentration of the resultant solution was 10 mM and the solution was sonicated and heated with a heat gun until the solid was dissolved. After standing for 30 minutes at room temperature, the sample was turned upside down and judged visually. […] The samples with no observed gel formation were subjected to standing at a lower temperature for further judgment.

solubility ([1]; hot cyclohexane) | gelation ability (Gelation test; Benzene) | gelation ability (Gelation test; Carbon tetrachloride) | gelation ability (Gelation test; Chloroform) | gelation ability (Gelation test; Cyclohexane) | gelation ability (Gelation test; Diphenyl ether) | gelation ability (Gelation test; Ethanol) | gelation ability (Gelation test; Ethyl acetate) | gelation ability (Gelation test; Hexane) | gelation ability (Gelation test; Hexanol) | gelation ability (Gelation test; Octane) | gelation ability (Gelation test; Tetrahydrofuran) | gelation ability (Gelation test; Toluene) | gelation ability (Gelation test; p-Xylene) | Structure (SMILES) | solubility ([1]; chloroform) | solubility ([1]; cyclohexane) | gelation (Gelation test; solvents not specified) | solubility (Gelation test; solvents not specified)
soluble | S | S | S | G | S | I | I | G | P | G | S | S | G | CCCCCCCCCCCCNC(=O)COc1cc2c3cc(OCC(=O)NCCCCCCCCCCCC)c(OCC(=O)NCCCCCCCCCCCC)cc3c3cc(OCC(=O)NCCCCCCCCCCCC)c(OCC(=O)NCCCCCCCCCCCC)cc3c2cc1OCC(=O)NCCCCCCCCCCCC [Compound 1] | – | – | – | –
soluble | P | S | S | pG | S | I | I | I | I | I | P | P | P | CCCCNC(=O)COc1cc2c3cc(OCC(=O)NCCCC)c(OCC(=O)NCCCC)cc3c3cc(OCC(=O)NCCCC)c(OCC(=O)NCCCC)cc3c2cc1OCC(=O)NCCCC [Compound 2] | – | – | – | –
– | – | – | – | – | – | – | – | – | – | – | – | – | – | CCCCCCCCCCCCOc1cc2c3cc(OCCCCCCCCCCCC)c(OCCCCCCCCCCCC)cc3c3cc(OCCCCCCCCCCCC)c(OCCCCCCCCCCCC)cc3c2cc1OCCCCCCCCCCCC [Compound 3, reference compound] | soluble | soluble | no gelation was observed | high solubility
